From EPA's ToxValDB 9.5

Tested on: Rattus norvegicus
Details: short-term, duration: 28 days, oral, gavage, M, Sprague-Dawley

Cc1cccc(Nc2cc(Cl)nc(SCC(=O)O)n2)c1C [[4-Chloro-6-(2,3-xylidino)-2-pyrimidinylthio]acetic acid]
LOEL (Clinical chemistry_Free thyroxine): 6.25 mg/kg-day | LOEL (Clinical chemistry_Globulin): 6.25 mg/kg-day | NOEL (Clinical chemistry_Indirect bilirubin): 25 mg/kg-day | LOEL (Clinical chemistry_Sorbitol dehydrogenase): 6.25 mg/kg-day | NOEL (Clinical chemistry_T bilirubin): 25 mg/kg-day | LOEL (Clinical chemistry_Testosterone): 25 mg/kg-day | LOEL (Clinical chemistry_Thyroid stimulating hormone): 25 mg/kg-day | LOEL (Clinical chemistry_Total bile acids): 6.25 mg/kg-day | NOEL (Clinical chemistry_Total bilirubin): 25 mg/kg-day | LOEL (Clinical chemistry_Total protein): 6.25 mg/kg-day | LOEL (Clinical chemistry_Total thyroxine): 6.25 mg/kg-day | NOEL (Clinical chemistry_Total triiodothyronine): 25 mg/kg-day | NOEL (Clinical chemistry_Triglycerides): 25 mg/kg-day | LOEL (Gene expression_Acox1): 6.25 mg/kg-day | LOEL (Gene expression_Acyl-CoA oxidase): 6.25 mg/kg-day | LOEL (Gene expression_Altered sperm parameters): 6.25 mg/kg-day | LOEL (Gene expression_Cyp2b1): 6.25 mg/kg-day | LOEL (Gene expression_Cyp2b2): 6.25 mg/kg-day | LOEL (Gene expression_Cyp4a1): 6.25 mg/kg-day | NOEL (Hematology_Erythrocytes): 25 mg/kg-day | NOEL (Hematology_Hematocrit): 25 mg/kg-day | NOEL (Hematology_Hemoglobin): 25 mg/kg-day | NOEL (Hematology_Leukocytes): 25 mg/kg-day | NOEL (Hematology_Mean corpuscular hemoglobin concentration): 25 mg/kg-day | NOEL (Hematology_Mean corpuscular volume): 25 mg/kg-day | NOEL (Hematology_Platelets): 25 mg/kg-day | NOEL (Hematology_Reticulocytes): 25 mg/kg-day | NOEL (Hematology_S. neutrophils): 25 mg/kg-day | NOEL (Nonneoplastic effects_Bone marrow - Hypocellularity): 25 mg/kg-day | NOEL (Nonneoplastic effects_Epididymis - Duct, exfoliated germ cell): 25 mg/kg-day | NOEL (Nonneoplastic effects_Epididymis - Epithelium, apoptosis): 25 mg/kg-day | NOEL (Nonneoplastic effects_Epididymis - Hypospermia): 25 mg/kg-day | NOEL (Nonneoplastic effects_Forestomach - Epithelium, hyperplasia): 25 mg/kg-day | NOEL (Nonneoplastic effects_Forestomach - Inflammation, chronic active): 25 mg/kg-day | NOEL (Nonneoplastic effects_Kidney - Nephropathy, chronic progressive): 25 mg/kg-day | NOEL (Nonneoplastic effects_Kidney - Papilla, necrosis): 25 mg/kg-day | NOEL (Nonneoplastic effects_Liver - Hepatocyte, Necrosis): 25 mg/kg-day | LOEL (Nonneoplastic effects_Liver - Hepatocyte, cytoplasmic alteration): 6.25 mg/kg-day | LOEL (Nonneoplastic effects_Liver - Hepatocyte, hypertrophy): 6.25 mg/kg-day | NOEL (Nonneoplastic effects_Liver - Hepatocyte, vacuolization cytoplasmic): 25 mg/kg-day | NOEL (Nonneoplastic effects_Liver - Necrosis): 25 mg/kg-day | NOEL (Nonneoplastic effects_Lymph nodes - Mandibular, atrophy): 25 mg/kg-day | NOEL (Nonneoplastic effects_Lymph nodes - Mesenteric, atrophy): 25 mg/kg-day | NOEL (Nonneoplastic effects_Nose - Olfactory epithelium, degeneration): 25 mg/kg-day | NOEL (Nonneoplastic effects_Nose - Olfactory epithelium, hyperplasia): 25 mg/kg-day | NOEL (Nonneoplastic effects_Nose - Olfactory epithelium, inflammation, suppurative): 25 mg/kg-day | NOEL (Nonneoplastic effects_Nose - Olfactory epithelium, necrosis): 25 mg/kg-day | NOEL (Nonneoplastic effects_Nose - Respiratory epithelium, hyperplasia): 25 mg/kg-day | NOEL (Nonneoplastic effects_Nose - Respiratory epithelium, inflammation, chronic active): 25 mg/kg-day | NOEL (Nonneoplastic effects_Spleen - Atrophy): 25 mg/kg-day | NOEL (Nonneoplastic effects_Spleen - Extramedullary hematopoiesis, decreased): 25 mg/kg-day | NOEL (Nonneoplastic effects_Spleen - Extramedullary hematopoiesis, increased): 25 mg/kg-day | NOEL (Nonneoplastic effects_Stomach, forestomach - Epithelium, hyperplasia): 25 mg/kg-day | NOEL (Nonneoplastic effects_Testes - Germinal epithelium, degeneration): 25 mg/kg-day | NOEL (Nonneoplastic effects_Testes - Interstitial cell, atrophy): 25 mg/kg-day | NOEL (Nonneoplastic effects_Testes - Seminiferous tubule, spermatid retention): 25 mg/kg-day | NOEL (Nonneoplastic effects_Thymus - Atrophy): 25 mg/kg-day | NOEL (Nonneoplastic effects_Thymus - Lymphocyte, apoptosis): 25 mg/kg-day | NOEL (Nonneoplastic effects_Thyroid gland - Follicular cell hypertrophy): 25 mg/kg-day | LOEL (Organ weights_Heart - Absolute): 25 mg/kg-day | NOEL (Organ weights_Heart - Relative): 25 mg/kg-day | LOEL (Organ weights_Liver - Absolute): 6.25 mg/kg-day | LOEL (Organ weights_Liver - Relative): 6.25 mg/kg-day | NOEL (Organ weights_Lung - Absolute): 25 mg/kg-day | NOEL (Organ weights_Lung - Relative): 25 mg/kg-day | NOEL (Organ weights_R. adrenal gland - Absolute): 25 mg/kg-day | NOEL (Organ weights_R. adrenal gland - Relative): 25 mg/kg-day | LOEL (Organ weights_R. kidney - Absolute): 6.25 mg/kg-day | LOEL (Organ weights_R. kidney - Relative): 6.25 mg/kg-day | NOEL (Organ weights_R. testis - Absolute): 25 mg/kg-day | LOEL (Organ weights_Spleen - Absolute): 6.25 mg/kg-day | NOEL (Organ weights_Spleen - Relative): 25 mg/kg-day | NOEL (Organ weights_Thymus - Absolute): 25 mg/kg-day | NOEL (Organ weights_Thymus - Relative): 25 mg/kg-day | NOEL (Organ weights_Thyroid gland - Absolute): 25 mg/kg-day | LOEL (Reproductive toxicity_Altered sperm parameters): 6.25 mg/kg-day | NOEL (Survival rates): 25 mg/kg-day
